Results from US9908926B2, “Protein-based molecular temperature switch” (ARIZONA BOARD OF REGENTS ON BEHALF OF ARIZONA STATE …, priority 2014, dated 2018).

What was measured:
TRPM8 protein domain = TRPM8 protein domain (Homo sapiens, UniProt Q7Z2W7); assay: Activation of TRPM8 by menthol (shift of activation curve); format: biochemical; settings: FIG. 5
Description: FIG. 3 illustrates the regulation of the ion channel via cold temperature change to an open channel within the protein membrane. The TRPM8 protein domain is weakly voltage-dependant and polymodal in that it can be activated with more than one agonist.

[1] = tested on: human bladder cancer cell lines; settings: cited from earlier work

TRPM8 protein domain, sequence (Q7Z2W7 whole entry, the tested form may be a part): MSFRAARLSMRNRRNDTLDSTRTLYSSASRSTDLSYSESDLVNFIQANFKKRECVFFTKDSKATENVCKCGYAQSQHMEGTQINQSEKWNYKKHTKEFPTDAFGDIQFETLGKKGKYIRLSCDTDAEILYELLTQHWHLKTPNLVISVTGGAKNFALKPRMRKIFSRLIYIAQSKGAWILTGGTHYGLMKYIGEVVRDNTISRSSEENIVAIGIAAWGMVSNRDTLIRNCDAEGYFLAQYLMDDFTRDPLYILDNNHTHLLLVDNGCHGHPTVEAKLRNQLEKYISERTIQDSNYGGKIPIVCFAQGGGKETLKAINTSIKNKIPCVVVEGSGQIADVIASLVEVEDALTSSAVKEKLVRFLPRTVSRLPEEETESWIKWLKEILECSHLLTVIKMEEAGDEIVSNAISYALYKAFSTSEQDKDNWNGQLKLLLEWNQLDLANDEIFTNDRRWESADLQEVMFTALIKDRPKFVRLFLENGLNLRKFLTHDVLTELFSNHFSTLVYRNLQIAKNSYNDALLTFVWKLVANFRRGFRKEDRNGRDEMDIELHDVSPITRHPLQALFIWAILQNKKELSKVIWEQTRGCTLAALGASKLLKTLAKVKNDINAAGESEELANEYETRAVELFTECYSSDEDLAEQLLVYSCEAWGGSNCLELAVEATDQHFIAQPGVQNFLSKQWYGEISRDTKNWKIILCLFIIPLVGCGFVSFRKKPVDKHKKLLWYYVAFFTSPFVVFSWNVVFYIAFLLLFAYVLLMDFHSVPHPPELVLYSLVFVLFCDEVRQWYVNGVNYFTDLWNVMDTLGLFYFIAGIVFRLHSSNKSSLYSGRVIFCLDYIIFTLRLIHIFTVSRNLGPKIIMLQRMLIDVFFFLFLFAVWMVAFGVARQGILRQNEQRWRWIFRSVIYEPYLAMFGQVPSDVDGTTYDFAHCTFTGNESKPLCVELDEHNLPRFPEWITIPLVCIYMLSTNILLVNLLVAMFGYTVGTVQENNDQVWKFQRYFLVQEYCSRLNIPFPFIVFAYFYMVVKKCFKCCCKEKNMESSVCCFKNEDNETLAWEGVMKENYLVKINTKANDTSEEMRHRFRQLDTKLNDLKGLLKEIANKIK

CC1CCC(C(C)C)C(O)C1 (centres unmarked) [menthol]
activation of the TRPM8 protein domain (TRPM8 protein domain): activates the TRPM8 protein domain by shifting the activation curve
cell death [1]: induces cell death in human bladder cancer cell lines
